Assay results: patent US4075332A (priority 1976, dated 1978)
Where two headings read alike, the source gives them in different places.

Legend:
[1] = in vivo; settings: rat, po
[2] = test system: Bean aphids; experiment: Aphid, Systemic; type: in vivo, bean aphid; settings: Aphis fabae, 48 h
Procedure: (§1) In the insecticidal and miticidal tests, the experimental compounds were tested as aqueous emulsions. These emulsions were prepared by dissolving the compound in acetone and dispersing it in distilled water with Triton X-100, an alkylaryl polyether alcohol derived by the reaction of i-octylphenol with ethylene oxide, to give spray emulsions containing the desired concentrations of the compound. These emulsions were then used in standard laboratory tests described below.
Aphid, Systemic: Nasturtium plants infested with the bean aphid were treated by applying 20 ml. of the formulated test chemical to the soil. The degree of aphid control was rated after 2 days.

[3] = test system: Mexican bean beetle; experiment: whole plant or invertebrate; settings: Epilachna varivestis
[4] = test system: House fly; experiment: whole plant or invertebrate; settings: Musca domestica, 48 h
[5] = test system: Spider mites; experiment: Mite, Systemic; type: in vivo, two-spotted mite; settings: Tetranychus urticae
Procedure: as §1
Mite, Systemic: Bean plants infested with the two-spotted mites were treated by applying 20 ml. of the formulated test chemical to the soil.

[6] = test system: Spider mites; experiment: whole plant or invertebrate; settings: Tetranychus urticae
[7] = test system: Bean aphids; experiment: whole plant or invertebrate; settings: Aphis fabae, 48 h
[8] = test system: Southern army worm; experiment: whole plant or invertebrate; settings: Spodoptera eridania, read-out: Mortality, % - Southern ArmyWorm
[9] = test system: Root-knot nematode; settings: in vivo
[10] = Thermal stability of products (GC / nmr observation); type: physicochemical; settings: general statement
Text: The corresponding primary alkyl derivatives such as the S'-n-propyl compound are stable under similar conditions.
The ethyl sulfinylmethyl product was unstable at room temperature.

[11] = test system: Corn rootworm larvae; experiment: whole plant or invertebrate; settings: soil, 120 h
[12] = test system: Southern army worm; settings: in vivo
[13] = read-out: Mortality, % - Bean Aphids Systemic
[14] = read-out: Mortality, % - Mexican Bean Beetles
[15] = read-out: Mortality, % - Spider Mites Systemic
[16] = 48 h, read-out: Mortality, % - Spider Mites Contact
[17] = read-out: Mortality, % - Bean Aphids Contact
[18] = read-out: Mortality, % - Mexican Bean Beetle
[19] = read-out: Mortality Produced, % - Bean Aphids Systemic
[20] = read-out: Mortality Produced, % - Mex.Bean Beetle
[21] = read-out: Mortality Produced, % - House Flies
[22] = read-out: Mortality Produced, % - Spider Mites Systemic
[23] = 48 h, read-out: Mortality Produced, % - Spider Mites Contact
[24] = read-out: Mortality Produced, % - Bean Aphids Contact

Question: With CCCSCCSP(=O)(OCC)SCCC (stereo not shown) [2 (CIP)] as the molecule, how does the LD50 at 336 h [1] read?
Answer: The LD50 at 336 h was 215 mg/kg.

Question: For CCCSCCSP(=O)(OCC)SCCC (stereo not shown) [Example 2, O-Ethyl S-1-Propyl S'-2-n-Propylthioethyl Dithiophosphate], which mortality at 250 ppm [2, 13] is on record?
Answer: Its mortality at 250 ppm is 75%.

Question: What about the mortality at 250 ppm [3, 14] of the same molecule?
Answer: Its mortality at 250 ppm is 100%.

Question: And the mortality at 250 ppm ([4]; read-out: Mortality, % - House Flies)?
Answer: The mortality at 250 ppm was 100%.

Question: What about the mortality at 250 ppm [5, 15] of the same molecule?
Answer: Its mortality at 250 ppm is 100%.

Question: What about the mortality at 250 ppm [6, 16] of the same molecule?
Answer: Its mortality at 250 ppm is 100%.

Question: And the mortality at 250 ppm [7, 17]?
Answer: The mortality at 250 ppm was 90%.

Question: Which mortality at 250 ppm [3, 14] does the source give for CCCSP(=O)(OCC)SCCSC(C)C (stereo not shown) [Example 3, O-Ethyl S-1-Propyl S'-2-i-Propylthioethyl Dithiophosphate] here?
Answer: Its mortality at 250 ppm is 100%.

Question: What about the mortality at 250 ppm [5, 15] of the same molecule?
Answer: Its mortality at 250 ppm is 85%.

Question: And the mortality at 250 ppm [6, 16]?
Answer: The mortality at 250 ppm was 100%.

Question: And the mortality at 250 ppm [8]?
Answer: The mortality at 250 ppm was 100%.

Question: And the mortality at 250 ppm [7, 17]?
Answer: Its mortality at 250 ppm is 70%.

Question: With CCCSP(=O)(OCC)SCCSc1ccc(Cl)cc1 (stereo not shown) [Example 5, O-Ethyl S-1-Propyl S'-2-p-Chlorophenylthioethyl Dithiophosphate] as the molecule, how does the mortality at 250 ppm [2, 13] read?
Answer: The mortality at 250 ppm was 10%.

Question: And the mortality at 250 ppm [3, 14]?
Answer: The mortality at 250 ppm was 100%.

Question: And the mortality at 250 ppm [5, 15]?
Answer: The mortality at 250 ppm was 40%.

Question: What about the mortality at 250 ppm [6, 16] of the same molecule?
Answer: Its mortality at 250 ppm is 100%.

Question: And the mortality at 250 ppm [7, 17]?
Answer: Its mortality at 250 ppm is 95%.

Question: For CCCSP(=O)(OCC)SCCS(C)(=O)=O (stereo not shown) [Example 7, O-Ethyl S-1-Propyl S'-(2-Methylsulfonylethyl) Dithiophosphate], which mortality at 250 ppm [2, 13] is on record?
Answer: Its mortality at 250 ppm is 100%.

Question: What about the mortality at 250 ppm [3, 18] of the same molecule?
Answer: The mortality at 250 ppm was 100%.

Question: What about the mortality at 250 ppm [5, 15] of the same molecule?
Answer: The mortality at 250 ppm was 100%.

Question: And the mortality at 250 ppm [6, 16]?
Answer: Its mortality at 250 ppm is 100%.

Question: And the “Nematode Control,% at 25 lb/acre” value [9]?
Answer: Its value is 100%.

Question: And the LD50 at 336 h [1]?
Answer: Its LD50 at 336 h is greater than 100 mg/kg.

Question: And the mortality at 250 ppm [8]?
Answer: Its mortality at 250 ppm is 100%.

Question: And the mortality at 250 ppm [7, 17]?
Answer: Its mortality at 250 ppm is 100%.

Question: Which results are given for CCCSP(=O)(OCC)SCC[S+]([O-])C(C)C (stereo not shown) [Example 8, O-Ethyl S-1-Propyl S'-2-i-Propylsulfinylethyl Dithiophosphate]?
Answer: mortality at 250 ppm [3, 18]: 100%; mortality at 250 ppm [5, 15]: 90%; mortality at 250 ppm [6, 16]: 95%; Nematode Control,% at 25 lb/acre [9]: 75%; mortality at 250 ppm [8]: 90%; mortality at 250 ppm [7, 17]: 100%

Question: For CCCSP(=O)(OCC)SCC(C)S(C)(=O)=O (stereo not shown) [Example 9, O-Ethyl S-1-Propyl S'-2-Methylsulfonylpropyl Dithiophosphate], which mortality at 250 ppm [2, 13] is on record?
Answer: Its mortality at 250 ppm is 95%.

Question: And the mortality at 250 ppm [3, 18]?
Answer: The mortality at 250 ppm was 100%.

Question: What about the mortality at 250 ppm [5, 15] of the same molecule?
Answer: The mortality at 250 ppm was 90%.

Question: What about the mortality at 250 ppm [6, 16] of the same molecule?
Answer: Its mortality at 250 ppm is 90%.

Question: And the “Nematode Control,% at 25 lb/acre” value [9]?
Answer: Its value is 80%.

Question: And the mortality at 250 ppm [8]?
Answer: The mortality at 250 ppm was 100%.

Question: What about the mortality at 250 ppm [7, 17] of the same molecule?
Answer: Its mortality at 250 ppm is 90%.

Question: With CCOP(=O)(SCSCC)SCC(C)C (stereo not shown) [Example 12, O-Ethyl S-Isobutyl S'Ethylthiomethyl Dithiophosphate] as the molecule, how does the thermal stability [10] read?
Answer: Its thermal stability is “thermal instability”.

Question: With CCCSP(=O)(OCC)SCC(C)SC(C)C (stereo not shown) [Example 35, O-Ethyl S-1-Propyl S'-2-i-Propylthiopropyl Dithiophosphate] as the molecule, how does the mortality at 50 ppm ([3]; read-out: Mexican Bean Beetles Mortality,%) read?
Answer: Its mortality at 50 ppm is 100%.

Question: And the mortality at 10 ppm ([6]; read-out: Spider Mites Mortality,%)?
Answer: Its mortality at 10 ppm is 100%.

Question: And the “Nematode Control,%” value [9]?
Answer: Its value is 100%.

Question: What about the mortality at 2.5 ppm ([11]; read-out: Corn Rootworm Mortality,%) of the same molecule?
Answer: The mortality at 2.5 ppm was 70%.

Question: What about the mortality at 50 ppm ([7]; read-out: Bean Aphids Mortality,%) of the same molecule?
Answer: Its mortality at 50 ppm is 50%.

Question: And the “S.Armyworm Mortality,%” value [12]?
Answer: The value was 100%.

Question: For CCOP(=O)(SCC(C)C)SCC(C)SC (stereo not shown) [Example 37, O-Ethyl S-2-Methylpropyl S'-2-Methylthiopropyl Dithiophosphate], which mortality at 50 ppm [2, 19] is on record?
Answer: Its mortality at 50 ppm is 70%.

Question: And the mortality at 250 ppm [2, 19]?
Answer: The mortality at 250 ppm was 100%.

Question: What about the mortality at 50 ppm [3, 20] of the same molecule?
Answer: Its mortality at 50 ppm is 100%.

Question: What about the mortality at 250 ppm [3, 20] of the same molecule?
Answer: Its mortality at 250 ppm is 100%.

Question: And the mortality at 50 ppm [4, 21]?
Answer: Its mortality at 50 ppm is 45%.

Question: What about the mortality at 250 ppm [4, 21] of the same molecule?
Answer: Its mortality at 250 ppm is 100%.

Question: And the mortality at 50 ppm [5, 22]?
Answer: Its mortality at 50 ppm is 100%.

Question: And the mortality at 250 ppm [5, 22]?
Answer: The mortality at 250 ppm was 100%.

Question: What about the mortality at 50 ppm [6, 23] of the same molecule?
Answer: The mortality at 50 ppm was 60%.

Question: What about the mortality at 250 ppm [6, 23] of the same molecule?
Answer: The mortality at 250 ppm was 100%.

Question: What about the mortality at 50 ppm [7, 24] of the same molecule?
Answer: Its mortality at 50 ppm is 10%.

Question: And the mortality at 250 ppm [7, 24]?
Answer: Its mortality at 250 ppm is 100%.

Question: What does the source list for CCCSP(=O)(OCC)SCC(CC)SC (stereo not shown) [Example 38, O-Ethyl S-1-Propyl S'-2-Methylthiobutyl Dithiophosphate]?
Answer: mortality at 50 ppm ([3]; read-out: Mortality Produced at 50 ppm, % - Mexican Bean Beetles): 10%; mortality at 50 ppm ([4]; read-out: Mortality Produced at 50 ppm, % - Houseflies): 100%; mortality at 50 ppm ([6]; read-out: Mortality Produced at 50 ppm, % - Spider Mites): 100%; Nematodes Control % at 25 lb/acre [9]: 90%; mortality at 2.5 ppm ([11]; read-out: Corn Rootworm Mortality, % at 2.5 ppm): 40%; mortality at 50 ppm ([7]; read-out: Mortality Produced at 50 ppm, % - Bean Aphids): 100%; Mortality Produced at 50 ppm, % - Southern Army Worm ([12]; southern armyworm): 80%
